The results in this text go back to patent publication US20250145631A1, “HETEROCYCLIC COMPOUND ACTING ON G12D MUTANT KRAS PROTEIN” (Astellas Pharma Inc., priority 2022, published 2025).

Each structure is given as a SMILES string.

Assay [1] has as its system phosphorylation of ERK (Thr202/Tyr204). Kind of assay: ERK phosphorylation inhibitory effect by Cell ELISA in AsPC-1 cells (Test Example 2). The class given is cell-based. The following applies: Homo sapiens, ASPC1, overnight treatment, Cell ELISA, read-out: IC50 (ERK phosphorylation inhibition). Put shortly: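 AsPC-1 cells (2.0×10^4/well, RPMI 1640 + 10% FBS) treated overnight with compounds (10 points, 10 μM to 0.3 nM final), then glyoxal-fixed and immunostained for phospho-ERK with IRDye 800CW secondary; 800-nm fluorescence read. IC50 by Sigmoid-Emax regression, normalized to DMSO (100%) and 1 μM trametinib (0%).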
On the technique in general: ELISA stands for enzyme-linked immunosorbent assay.

For assay [2], the system named is human G12D mutant KRAS-positive pancreatic cancer line AsPC-1. Kind of assay: Non-anchorage-dependent cell growth inhibitory effect, spheroid 3D culture (Test Example 3). It is filed as cell-based. Particulars: ASPC1, 144 h, AsPC-1 spheroid 3D culture, 6 days, CellTiter Glo 2.0, read-out: IC50 (non-anchorage-dependent cell growth inhibition). Put shortly:
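AsPC-1 cells grown as spheroids in RPMI 1640 with 10% FBS at 37° C, 5% CO2, then exposed to compounds (10 μM to 0.3 nM final) for 6 days. Viability read by CellTiter Glo 2.0 luminescence. IC50 from Sigmoid-Emax regression with DMSO as 100% and cell-free medium as 0%.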
Background: In ATP-based viability assays light output follows the ATP content of the culture.

For the compound `Cc1c(F)cc2[nH]ncc2c1-c1c(C2CC2)cc2c(N3C[C@@H]4C[C@H]3CN4)nc(OC3CCOCC3)nc2c1OCc1ccc(C(=O)N2CCN(Cc3ccc4c(c3)n(C)c(=O)n4C3CCC(=O)NC3=O)C[C@@H]2C)cc1` (stereo partly drawn) [Example 8, 3-(5-{[(3S)-4-{4-[({(7M)-6-cyclopropyl-4-[(1S,4S)-2,5-diazabicyclo[2.2.1]heptan-2-yl]-7-(6-fluoro-5-methyl-1H-indazol-4-yl)-2-[(oxan-4-yl)oxy]quinazolin-8-yl}oxy)methyl]benzoyl}-3-methylpiperazin-1-yl]methyl}-3-methyl-2-oxo-2,3-dihydro-TH-benzimidazol-1-yl)piperidine-2,6-dione], the IC50 – broadly, the concentration that gives 50% inhibition – was 21 nM in assay [1] and 27 nM in assay [2].
Taken in the same sequence, the figures for `CO[C@@H](C)COc1nc(N2C[C@@H]3C[C@H]2CN3)c2cc(C3CC3)c(-c3c(C)c(F)cc4[nH]ncc34)c(OCc3ccc(C(=O)N4CCN(Cc5ccc6c(c5)n(C)c(=O)n6C5CCC(=O)NC5=O)C[C@@H]4C)cc3)c2n1` (stereo partly drawn) [Example 10, 3-(5-{[(3S)-4-{4-[({(7M)-6-cyclopropyl-4-[(1S,4S)-2,5-diazabicyclo[2.2.1]heptan-2-yl]-7-(6-fluoro-5-methyl-1H-indazol-4-yl)-2-[(2S)-2-methoxypropoxy]quinazolin-8-yl}oxy)methyl]benzoyl}-3-methylpiperazin-1-yl]methyl}-3-methyl-2-oxo-2,3-dihydro-1H-benzimidazol-1-yl)piperidine-2,6-dione] were 9 nM and 15 nM.
Turning to `CO[C@@H](C)COc1cc(O[C@H]2CCNC2)c2cc(C3CC3)c(-c3c(C)c(F)cc4[nH]ncc34)c(OCc3ccc(C(=O)N4CCN(Cc5ccc6c(c5)n(C)c(=O)n6C5CCC(=O)NC5=O)C[C@@H]4C)cc3)c2n1` (stereo partly drawn) [Example 12, 3-[5-({(3S)-4-[4-({[6-cyclopropyl-7-(6-fluoro-5-methyl-1H-indazol-4-yl)-2-[(2S)-2-methoxypropoxy]-4-{[(3S)-pyrrolidin-3-yl]oxy}quinolin-8-yl]oxy}methyl)benzoyl]-3-methylpiperazin-1-yl}methyl)-3-methyl-2-oxo-2,3-dihydro-1H-benzimidazol-1-yl]piperidine-2,6-dione], the half-maximal inhibitory concentration (IC50) in assay [1] is 16 nM; in assay [2], 41 nM.
For `CO[C@@H](C)COc1cc(N2C[C@@H]3C[C@H]2CN3)c2cc(C3CC3)c(-c3c(C)c(F)cc4[nH]ncc34)c(OCc3ccc(C(=O)N4CCN(Cc5ccc6c(c5)n(C)c(=O)n6C5CCC(=O)NC5=O)C[C@@H]4C)cc3)c2n1` (stereo partly drawn) [Example 29, 3-(5-{[(3S)-4-{4-[({6-cyclopropyl-4-[(1S,4S)-2,5-diazabicyclo[2.2.1]heptan-2-yl]-7-(6-fluoro-5-methyl-1H-indazol-4-yl)-2-[(2S)-2-methoxypropoxy]quinolin-8-yl}oxy)methyl]benzoyl}-3-methylpiperazin-1-yl]methyl}-3-methyl-2-oxo-2,3-dihydro-1H-benzimidazol-1-yl)piperidine-2,6-dione] the same measures were 24 nM and 33 nM.
